Reference: ChEMBL document CHEMBL5046262, “Fragment-Based Discovery of MRTX1719, a Synthetic Lethal Inhibitor of the PRMT5•MTA Complex for the Treatment of MTAP-Deleted Cancers” (J Med Chem, 2022)
Where “and” joins values, the source holds several entries; their conditions need not be identical. Equal values may be shown once.

Experiments:
[1] = target: T1, Protein arginine N-methyltransferase 5 (Homo sapiens, UniProt O14744); assay: Inhibition of PRMT5 methyltransferase activity in human HCT-116 cells expressing wild type MTAP assessed as inhibition of PRMT5- mediated SDMA modification level incubated for 96 hrs by Western blot analysis; assay type: cell-based
[2] = Intrinsic clearance in human hepatocytes; assay type: ADME, cell-based, Hepatocyte; details: read-out: CLH
[3] = tested on: HCT-116; assay: Antiproliferative activity against human HCT-116 cells expressing wild type MTAP assessed as reduction in cell viability incubated for 5 days followed by replacement with fresh medium containing compound and measured after 5 days by CTG assay; assay type: functional, cell-based
[4] = Efflux ratio of apparent permeability across basolateral to apical side over apical to basolateral side in dog MDCKII-MDR1 cells at 2 uM incubated for 2.5 hrs by LC-MS/MS analysis; assay type: ADME, cell-based, Canis lupus familiaris, MDCK-MDR1; details: for efflux ratio at 2.5 h, 2 µM: MDCK-MDR1
[5] = tested on: HCT-116; assay: Antiproliferative activity against MTAP knockout human HCT-116 cells assessed as reduction in cell viability incubated for 5 days followed by replacement with fresh medium containing compound and measured after 5 days by CTG assay; assay type: functional, cell-based
[6] = Intrinsic clearance in mouse hepatocytes; assay type: ADME, cell-based, Hepatocyte; details: read-out: CLH
[7] = Apparent permeability across apical to basolateral side in dog MDCKII-MDR1 cells at 2 uM incubated for 2.5 hrs by LC-MS/MS analysis; assay type: ADME, cell-based, Canis lupus familiaris, MDCK-MDR1; details: MDCK-MDR1
[8] = target: T1, Protein arginine N-methyltransferase 5
[9] = target: T1, Protein arginine N-methyltransferase 5; remark: listed apart in the source
[10] = target: T1, Protein arginine N-methyltransferase 5; assay: Inhibition of PRMT5 methyltransferase activity in MTAP knockout human HCT-116 cells assessed as inhibition of PRMT5- mediated SDMA modification level incubated for 96 hrs by Western blot analysis; assay type: cell-based
[11] = species on record: Homo sapiens; assay: Selectivity ratio of IC50 for inhibition of human PRMT5 co-complexed with MEP50 in absence of MTA to IC50 for inhibition of MTA-bound human PRMT5 co-complexed with MEP50
[12] = species on record: Homo sapiens; assay: Selectivity ratio of IC50 for inhibition of PRMT5 methyltransferase activity in human HCT-116 cells expressing wild type MTAP to IC50 for nhibition of PRMT5 methyltransferase activity in MTAP knockout human HCT-116 cells; assay type: cell-based
[13] = Oral bioavailability in CD-1 mouse at 30 mg/kg administered via gavage measured upto 24 hrs by LC-MS/MS analysis; assay type: ADME, organism-based; details: in vivo
[14] = Half life in CD-1 mouse at 3 mg/kg, iv measured upto 24 hrs by LC-MS/MS analysis; assay type: ADME, organism-based; details: in vivo
[15] = Volume of distribution at steady state in CD-1 mouse at 3 mg/kg, iv measured upto 24 hrs by LC-MS/MS analysis; assay type: ADME, organism-based; details: in vivo, read-out: Vdss
[16] = Total clearance in CD-1 mouse at 3 mg/kg, iv measured upto 24 hrs by LC-MS/MS analysis; assay type: ADME, organism-based; details: in vivo

T1 sequence (O14744 whole entry): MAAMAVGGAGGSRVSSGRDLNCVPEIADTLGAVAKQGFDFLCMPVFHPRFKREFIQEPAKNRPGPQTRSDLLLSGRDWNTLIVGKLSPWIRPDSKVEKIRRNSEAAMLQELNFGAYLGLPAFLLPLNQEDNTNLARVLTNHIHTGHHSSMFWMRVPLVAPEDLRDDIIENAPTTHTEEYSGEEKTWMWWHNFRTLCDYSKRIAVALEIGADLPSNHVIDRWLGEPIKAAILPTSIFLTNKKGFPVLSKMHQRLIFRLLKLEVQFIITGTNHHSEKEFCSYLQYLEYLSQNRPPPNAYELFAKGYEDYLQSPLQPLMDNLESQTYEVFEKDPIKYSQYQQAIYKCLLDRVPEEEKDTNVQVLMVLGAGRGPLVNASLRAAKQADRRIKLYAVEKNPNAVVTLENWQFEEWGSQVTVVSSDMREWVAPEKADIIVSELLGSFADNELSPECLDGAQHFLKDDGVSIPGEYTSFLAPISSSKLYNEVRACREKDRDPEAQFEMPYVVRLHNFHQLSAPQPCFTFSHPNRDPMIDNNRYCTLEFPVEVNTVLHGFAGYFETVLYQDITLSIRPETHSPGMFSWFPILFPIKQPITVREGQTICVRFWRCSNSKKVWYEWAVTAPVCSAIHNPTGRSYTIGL

Structure (SMILES)	IC50 [1]	CLint scaled [2] [mL/min/kg]	IC50 [3]	efflux ratio at 2.5 h, 2 µM [4]	Ratio ([4]; mdck-mdr1, 2.5 h, 2 µM, 2.5 h)	IC50 [5]	CLint scaled [6] [mL/min/kg]	Papp A→B at 2.5 h, 2 µM [7] [×10⁻⁶ cm/s]	IC50 [8] [nM]	IC50 [9] [µM]	IC50 [10] [nM]	Ratio IC50 [11]	Ratio IC50 [12]	bioavailability [13] [%]	half-life [14] [min]	Vd [15] [L/kg]	clearance [16] [mL/min/kg]
Cn1ncc(-c2ccc3c(=O)[nH]nc(CN)c3c2)c1-c1c(F)ccc(OC2CC2)c1C#N	1.05 µM and 4.48 µM	18	2.18 µM and 3.62 µM and 4.21 µM	143	123 and 150	43 nM and 17 nM and 112 nM	143	0.2									
NCc1n[nH]c(=O)c2ccc(-c3cccnn3)cc12				0.9				1.1	30100	> 100							
Cn1ncc(-c2ccc3c(=O)[nH]nc(CN)c3c2)c1-c1c(Cl)ccc(OC2CC2)c1C#N	> 1 µM	< 18	1.65 µM	131		91 nM	332	0.3			11						
COc1cccc(-c2c(-c3ccc4c(=O)[nH]nc(CN)c4c3)cnn2C)c1C#N	> 10 µM	< 18	> 10 µM	20		851 nM	137	0.6	1000		62						
Cn1ncc(-c2ccc3c(=O)[nH]nc(CN)c3c2)c1-c1ccccc1	9.81 µM	23	4.06 µM	20		3650 nM	123	1.5	3000		2470						
Cn1ncc(-c2ccc3c(=O)[nH]nc(CN)c3c2)c1-c1c(F)cccc1C#N	> 10 µM	18	7.44 µM	42		761 nM	171	0.3	4000		322						
CCCn1cc(-c2ccc3c(=O)[nH]nc(CN)c3c2)cn1				2.7				3.2	320	7.65		24					
Cc1c(-c2ccc3c(=O)[nH]nc(CN)c3c2)cnn1C				0.6				4.9	50	1.29		26					
Cc1cc(OC2CC2)c(C#N)c(-c2c(-c3ccc4c(=O)[nH]nc(CN)c4c3)cnn2C)c1		21	1.29 µM	62		77 nM	175	0.4			9						
Cn1ncc(-c2ccc3c(=O)[nH]nc(CN)c3c2)c1-c1cc2ccccc2cc1C#N		< 18	5.09 µM	31		264 nM	212	0.5			118						
NCc1n[nH]c(=O)c2ccc(-c3cccnc3)cc12				0.7				2.8	910	19		21					
NCc1n[nH]c(=O)c2ccc(-c3cnsc3)cc12				0.8				11.1	710	11.6		16					
NCc1n[nH]c(=O)c2ccc(-c3ccccn3)cc12				1.2				9.3	95800	> 100							
CCc1cccc(-c2c(-c3ccc4c(=O)[nH]nc(CN)c4c3)cnn2C)c1C#N	3.21 µM	18	> 10 µM	35		175 nM	523	0.3	2000		79						
Cc1cccc(-c2c(-c3ccc4c(=O)[nH]nc(CN)c4c3)cnn2C)c1C#N	8.83 µM	29	> 10 µM	36		365 nM	296	0.6	3000		101						
NCc1n[nH]c(=O)c2ccc(-c3cncs3)cc12				0.6				14.6									
Cn1ncc(-c2ccc3c(=O)[nH]nc(CN)c3c2)c1-c1ccccc1C#N	3.17 µM	< 18	> 10 µM	7		5230 nM	148	1.6	4000		826		4				
Cn1ncc(-c2ccc3c(=O)[nH]nc(CN)c3c2)c1-c1ccc2ccccc2c1C#N	1.21 µM	< 18	1.98 µM	99		49 nM	340	0.4			11						
CC(=O)N1CCC(Nc2cc(C(=O)NC[C@H](O)CN3CCc4ccccc4C3)ncn2)CC1 [PEMRAMETOSTAT]			0.237 µM			189 nM											
Cc1ccc(-c2ccc3c(=O)[nH]nc(CN)c3c2)cn1				3.5				4.7	5800	69		12					
CCn1cc(-c2ccc3c(=O)[nH]nc(CN)c3c2)cn1				6.2				2	510	10.6		21					
NCc1n[nH]c(=O)c2ccc(-c3cnn(CCO)c3)cc12				0.9				0.9		11.2		16					
Cn1ncc(-c2ccc3c(=O)[nH]nc(CN)c3c2)c1-c1cccc(Cl)c1C#N	8.81 µM	< 18	> 10 µM	35		544 nM	232	0.7	2000		62			12	78	6.6	121
Cn1ncc(-c2ccc3c(=O)[nH]nc(CN)c3c2)c1-c1sc2ccccc2c1C#N	> 1 µM	41	5.8 µM	58		58 nM	280	0.6			5						
NCc1n[nH]c(=O)c2ccc(-c3ccccc3)cc12												3					
CC(C)n1cc(-c2ccc3c(=O)[nH]nc(CN)c3c2)cn1				20.1				1.31	670	11.4		17					
